The results in this text go back to ChEMBL document CHEMBL4402591, “Imidazo[1,2-a]pyridine Derivatives as Aldehyde Dehydrogenase Inhibitors: Novel Chemotypes to Target Glioblastoma Stem Cells” (J Med Chem, 2020).

Assay [1] addresses T1, Retinaldehyde dehydrogenase 3 (Homo sapiens, UniProt P47895).
T1 sequence (P47895 whole entry): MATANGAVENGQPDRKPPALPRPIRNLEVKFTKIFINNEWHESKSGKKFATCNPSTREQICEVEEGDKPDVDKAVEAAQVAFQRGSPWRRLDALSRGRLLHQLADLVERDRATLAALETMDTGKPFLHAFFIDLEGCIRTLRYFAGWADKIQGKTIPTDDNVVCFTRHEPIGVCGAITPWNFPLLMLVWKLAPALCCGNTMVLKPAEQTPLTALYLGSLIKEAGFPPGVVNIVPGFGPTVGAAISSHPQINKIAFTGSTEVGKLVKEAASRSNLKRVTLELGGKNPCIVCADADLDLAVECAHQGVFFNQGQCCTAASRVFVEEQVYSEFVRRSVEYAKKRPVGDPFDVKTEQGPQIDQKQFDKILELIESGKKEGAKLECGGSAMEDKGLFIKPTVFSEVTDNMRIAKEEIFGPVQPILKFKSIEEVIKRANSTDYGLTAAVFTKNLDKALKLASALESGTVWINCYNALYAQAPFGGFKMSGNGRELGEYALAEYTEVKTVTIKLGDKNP
Briefly: Inhibition of recombinant human 6His-tagged ALDH1A3 expressed in Escherichia coli BL21(DE3) using acetaldehyde as substrate preincubated for 5 mins followed by substrate addition by spectrometric assay.

Assay [2] is described as follows: Antiproliferative activity against human PN157 cells measured after 72 hrs by alamar blue assay. The format is functional, cell-based. (Alamar Blue is a resazurin reagent that responds to reducing activity.)
Assay [3] can be described thus: Antiproliferative activity against human MES267 cells measured after 72 hrs by alamar blue assay. It counts as functional, cell-based.
Assay [4] deals with T2, Aldehyde dehydrogenase 1A1 (Homo sapiens, UniProt P00352).
T2 sequence (P00352 whole entry): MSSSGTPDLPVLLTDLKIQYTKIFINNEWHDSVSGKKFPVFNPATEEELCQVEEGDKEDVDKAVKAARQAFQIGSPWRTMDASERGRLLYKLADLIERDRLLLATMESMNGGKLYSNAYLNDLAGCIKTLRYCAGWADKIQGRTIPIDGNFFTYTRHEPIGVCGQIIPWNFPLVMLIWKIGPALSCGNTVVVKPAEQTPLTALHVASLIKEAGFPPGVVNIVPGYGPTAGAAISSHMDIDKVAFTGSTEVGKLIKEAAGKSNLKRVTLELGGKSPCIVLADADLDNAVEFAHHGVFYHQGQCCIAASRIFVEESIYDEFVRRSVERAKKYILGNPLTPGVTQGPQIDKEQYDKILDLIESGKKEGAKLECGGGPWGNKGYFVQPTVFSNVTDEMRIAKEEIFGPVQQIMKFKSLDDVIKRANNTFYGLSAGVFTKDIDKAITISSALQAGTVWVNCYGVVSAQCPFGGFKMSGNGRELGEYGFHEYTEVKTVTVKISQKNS
Description: Inhibition of recombinant human 6His-tagged ALDH1A1 expressed in Escherichia coli BL21(DE3) using acetaldehyde as substrate preincubated for 5 mins followed by substrate addition by spectrometric assay.

Assay [5] can be described thus: Antiproliferative activity against human MES374 cells measured after 72 hrs by alamar blue assay. It counts as functional, cell-based.
For assay [6], the target named is T1, Retinaldehyde dehydrogenase 3. Briefly: Competitive inhibition of recombinant human 6His-tagged ALDH1A3 expressed in Escherichia coli BL21(DE3) using varying level of acetaldehyde as substrate preincubated for 5 mins followed by substrate addition by Michaelis-Menten plot analysis.
The next assay concerns the target T3, Retinal dehydrogenase 2 (Homo sapiens, UniProt O94788).
T3 sequence (O94788 whole entry): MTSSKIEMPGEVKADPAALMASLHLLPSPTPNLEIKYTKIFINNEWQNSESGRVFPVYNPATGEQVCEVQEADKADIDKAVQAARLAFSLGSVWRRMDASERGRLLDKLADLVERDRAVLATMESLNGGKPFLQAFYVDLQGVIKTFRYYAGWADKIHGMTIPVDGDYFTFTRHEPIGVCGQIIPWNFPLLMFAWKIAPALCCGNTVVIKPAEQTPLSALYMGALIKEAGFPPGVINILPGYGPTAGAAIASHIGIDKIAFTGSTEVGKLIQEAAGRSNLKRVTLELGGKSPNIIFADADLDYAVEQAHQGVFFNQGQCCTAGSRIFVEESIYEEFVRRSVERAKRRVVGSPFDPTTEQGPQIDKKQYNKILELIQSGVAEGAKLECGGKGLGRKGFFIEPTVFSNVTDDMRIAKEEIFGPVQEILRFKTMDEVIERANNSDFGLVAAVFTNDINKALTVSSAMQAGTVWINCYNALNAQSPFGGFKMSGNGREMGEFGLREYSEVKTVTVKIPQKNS
Description: Inhibition of recombinant human 6His-tagged ALDH1A2 expressed in Escherichia coli BL21(DE3) using acetaldehyde as substrate preincubated for 5 mins followed by substrate addition by spectrometric assay.

Molecules are shown by their SMILES.

Usually IC50 stands for the concentration at which inhibition is half-maximal. As for `Cc1ccc(-c2cn3cc(-c4ccc(F)cc4)ccc3n2)cc1`, the concentration for half-maximal inhibition (IC50) in assay [1] came to 92.9 µM.
For the compound `COC(=O)c1ccc(-c2ccc3nc(-c4ccccc4)cn3c2)cc1`, the IC50 amounted to 27.4 µM in assay [1], 822 nM in assay [2], 823 nM in assay [3] and 96.9 µM in assay [4].
Regarding `N#Cc1ccc(-c2ccc3nc(-c4ccccc4)cn3c2)cc1`, the IC50 in assay [1] is 5.2 µM.
Regarding `COc1ccc(-c2ccc3nc(-c4ccccc4)cn3c2)cc1`, the IC50 in assay [1] worked out at 17.8 µM; in assay [2], 2660 nM; in assay [3], 660 nM.
As to `COc1ccc(-c2ccc3nc(-c4ccc(OC)cc4)cn3c2)cc1`, the IC50 in assay [1] was 11.4 µM.
For `Cc1ccc(-c2cn3cc(-c4ccccc4)ccc3n2)cc1`, the IC50 in assay [1] was 11.3 µM.
As for `COc1cccc(-c2cn3cc(-c4ccc(Cl)cc4)ccc3n2)c1`, the IC50 came out at 6.4 µM in assay [1], 29.6 nM in assay [2], 71.2 nM in assay [3] and 13.5 nM in assay [5].
For the compound `COc1ccc(-c2cn3cc(-c4ccc(OC)c(OC)c4)ccc3n2)cc1`, in assay [1], the IC50 was determined as 8.3 µM.
On to `N#Cc1cccc(-c2ccc3nc(-c4ccccc4)cn3c2)c1`, for which, in assay [1], the IC50 was determined as 5.3 µM.
On to `Clc1ccc(-c2ccc3nc(-c4ccccc4)cn3c2)cc1`, for which the 50% inhibitory concentration (IC50) in assay [1] was found to be 45.8 µM; in assay [2], 53.1 nM; in assay [3] it was 21.5 nM; in assay [5] it was 0.0196 nM; in assay [4], 68.8 µM.
The Ki is a dissociation constant, usually derived from enzyme kinetics or from competition with a known ligand. With `c1ccc(-c2ccc3nc(-c4ccccc4)cn3c2)cc1`, in assay [6], the Ki was 540 nM. For the same compound, the IC50 amounted to 4.7 µM in assay [1]; 151 nM in assay [2]; 46.9 nM in assay [3]; 2.74 nM in assay [5]; 19.6 µM in assay [4]; 54.6 µM at Retinal dehydrogenase 2.
On to `CSc1ccc(-c2ccc3nc(-c4ccccc4)cn3c2)cc1`, for which the IC50 in assay [1] came out at 27.1 µM.
For the compound `COc1ccc(-c2cn3cc(-c4cc(OC)cc(OC)c4)ccc3n2)cc1`, the concentration for half-maximal inhibition (IC50) in assay [1] was 3.5 µM; in assay [4], 198 µM.
In the case of `Clc1ccc(-c2ccc3nc(-c4ccc(Br)cc4)cn3c2)cc1`, the half-inhibitory concentration (IC50) in assay [4] was 17.3 µM.
For `COc1cccc(-c2cn3cc(-c4ccc(F)cc4)ccc3n2)c1`, the values for the IC50 in assay [1], in assay [2] and in assay [3] were 21.2 µM, 1510 nM and 350 nM, respectively.
Regarding `Fc1ccc(-c2ccc3nc(-c4ccccc4)cn3c2)cc1`, the IC50 was found to be 22.8 µM in assay [1], 25.2 nM in assay [2], 63.4 nM in assay [3] and 0.00258 nM in assay [5].
